According to publication PMC11724466, “PRMT5 inhibition has a potent anti-tumor activity against adenoid cystic carcinoma of salivary glands” (Journal of Experimental & Clinical Cancer Research : CR, 2025):

Target: T1, PRMT5 (protein arginine methyl transferase 5) (Homo sapiens, UniProt O14744)
T1 construct: human recombinant PRMT5/MEP50 complex; with MEP50
Test: scintillation proximity radiometric methyltransferase assay (3H-SAM, histone H4 peptide); jump dilution
Type: biochemical

T1 sequence (O14744 2-637): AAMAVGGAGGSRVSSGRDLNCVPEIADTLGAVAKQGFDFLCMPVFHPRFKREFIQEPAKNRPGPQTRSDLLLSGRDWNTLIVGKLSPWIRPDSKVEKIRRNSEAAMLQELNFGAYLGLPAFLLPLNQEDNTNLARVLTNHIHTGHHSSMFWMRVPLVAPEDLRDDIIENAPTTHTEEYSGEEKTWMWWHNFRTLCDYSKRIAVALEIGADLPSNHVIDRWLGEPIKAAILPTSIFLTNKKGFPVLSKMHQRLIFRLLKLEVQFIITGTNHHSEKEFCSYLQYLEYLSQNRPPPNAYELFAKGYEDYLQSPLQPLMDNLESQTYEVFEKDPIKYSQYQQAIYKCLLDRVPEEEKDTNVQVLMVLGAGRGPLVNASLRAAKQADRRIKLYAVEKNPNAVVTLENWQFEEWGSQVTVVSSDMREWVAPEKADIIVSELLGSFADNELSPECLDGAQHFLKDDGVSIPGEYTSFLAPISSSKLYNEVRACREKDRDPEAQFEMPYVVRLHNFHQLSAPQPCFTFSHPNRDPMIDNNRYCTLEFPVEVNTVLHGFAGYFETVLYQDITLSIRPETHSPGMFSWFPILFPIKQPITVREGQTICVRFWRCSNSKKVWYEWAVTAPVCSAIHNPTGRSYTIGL
T1 sequence (Q9BQA1 whole entry partner): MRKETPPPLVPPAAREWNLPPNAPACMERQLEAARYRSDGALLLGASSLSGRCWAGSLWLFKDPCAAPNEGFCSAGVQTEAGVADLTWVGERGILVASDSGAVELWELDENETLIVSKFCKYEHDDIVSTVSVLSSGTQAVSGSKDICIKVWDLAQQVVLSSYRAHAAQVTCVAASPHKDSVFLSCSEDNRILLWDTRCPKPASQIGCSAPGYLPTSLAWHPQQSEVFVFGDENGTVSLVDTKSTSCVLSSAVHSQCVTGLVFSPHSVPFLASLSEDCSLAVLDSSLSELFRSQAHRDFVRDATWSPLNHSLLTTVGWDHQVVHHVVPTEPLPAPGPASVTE

For PRT543, the IC50 was 0.0108 µM.
